The values that follow come from PubChem BioAssay (NCI).

Among the test systems are 786-0 renal; HCT-15 colon; HL-60(TB) leukemia; HT29 colon; KM12 colon; M14 melanoma; MALME-3M melanoma; MCF7 breast; MDA-N; MOLT-4 leukemia; NCI-H226 lung; NCI-H23 lung; OVCAR-4 ovarian; OVCAR-5 ovarian; SK-MEL-2 melanoma; SK-MEL-28 melanoma; TK-10 renal; U251 CNS; ACHN renal; SNB-19 CNS.
What all share (experiment): inhibition of tumour cell growth, NCI panel, 48 h

SMILES strings stand for the structures.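 Five concentrations, 48 hours, 96-well plates. TGI denotes the concentration required for complete inhibition of growth.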

In the case of `CC(C)(C)O/N=C/c1cc(NC(=S)c2ccsc2)ccc1Cl`, the TGI with 786-0 renal was found to be 31.6 µM; in the assay on HCT-15 colon, 27.7 µM; with HL-60(TB) leukemia, 39 µM; in the assay with HT29 colon, 26.1 µM; in the assay with KM12 colon it was 23.3 µM; in the assay with M14 melanoma it was 31.4 µM. Besides, the TGI in the assay with MALME-3M melanoma amounted to 31.5 µM; in the assay with MCF7 breast it was 24.8 µM; in the assay with MDA-N, 29.8 µM; in the assay on MOLT-4 leukemia, 26.1 µM; in the assay with NCI-H226 lung, 35.9 µM; with NCI-H23 lung, 20.7 µM. Also, the TGI is 28.7 µM in the assay on OVCAR-4 ovarian; 32.9 µM with OVCAR-5 ovarian; 29.5 µM with SK-MEL-2 melanoma; 39.2 µM in the assay on SK-MEL-28 melanoma; 26.6 µM with TK-10 renal; 43.8 µM in the assay on U251 CNS.

As for `COc1ccc(-c2nc(Nc3ccccc3)sc2Cc2sc(Nc3ccccc3)nc2-c2ccc(OC)cc2)cc1`, the TGI in the assay on 786-0 renal was more than 100 µM; with ACHN renal, more than 100 µM; with HCT-15 colon, more than 100 µM; in the assay with HL-60(TB) leukemia, 52 µM; with HT29 colon, more than 100 µM; in the assay on KM12 colon, more than 100 µM. The TGI with MALME-3M melanoma, in the assay with MCF7 breast, with MDA-N, in the assay with MOLT-4 leukemia, in the assay on NCI-H226 lung and in the assay on NCI-H23 lung was more than 100 µM throughout. Besides, the TGI with OVCAR-4 ovarian, in the assay on OVCAR-5 ovarian, in the assay on SK-MEL-28 melanoma, in the assay on SNB-19 CNS, in the assay with TK-10 renal and in the assay on U251 CNS was more than 100 µM throughout.

In the case of `Cc1nn(C(=O)c2ccncc2)c2c1C(c1ccccc1[N+](=O)[O-])SC(N)=N2` (centres undefined), the TGI in the assay with 786-0 renal, in the assay with ACHN renal, in the assay with HCT-15 colon, in the assay on HL-60(TB) leukemia, in the assay on HT29 colon and with KM12 colon was more than 10 µM each time. Further, the TGI in the assay on M14 melanoma, in the assay on MALME-3M melanoma, in the assay with MCF7 breast, in the assay on MDA-N, in the assay on MOLT-4 leukemia and in the assay with NCI-H226 lung was more than 10 µM each time. Moreover, the TGI in the assay with NCI-H23 lung, with OVCAR-4 ovarian, with OVCAR-5 ovarian, in the assay with SK-MEL-2 melanoma, in the assay with SK-MEL-28 melanoma and with SNB-19 CNS was more than 10 µM in each case. In the assay with TK-10 renal, the TGI is more than 10 µM.

Consider `Cc1ccc(S(=O)(=O)N2CCNCCN(S(=O)(=O)c3ccc(C)cc3)CCNCC2)cc1`, for which the TGI in the assay with 786-0 renal is 33.7 µM; with ACHN renal, 89.1 µM; with HCT-15 colon, more than 100 µM; with HL-60(TB) leukemia, 25.4 µM; with HT29 colon, 30.2 µM; in the assay with KM12 colon, 42.1 µM. Also, the TGI was 34.7 µM in the assay on M14 melanoma; 33.1 µM in the assay on MALME-3M melanoma; 53.8 µM with MCF7 breast; 40.9 µM in the assay on MDA-N; 44 µM in the assay on NCI-H226 lung; more than 100 µM in the assay on NCI-H23 lung. Besides, the TGI was 82.4 µM in the assay on OVCAR-4 ovarian; more than 100 µM in the assay on OVCAR-5 ovarian; 41.9 µM in the assay on SK-MEL-2 melanoma; 37.6 µM in the assay with SK-MEL-28 melanoma; more than 100 µM in the assay on SNB-19 CNS; 44 µM in the assay on TK-10 renal. In the assay with U251 CNS, the TGI amounted to 41.1 µM.

As to `CC(=O)N1C(Nc2nccs2)CCN1c1ccccc1` (centres undefined), the TGI with 786-0 renal, in the assay with ACHN renal, in the assay on HCT-15 colon, with HL-60(TB) leukemia, with HT29 colon and with M14 melanoma was more than 10 µM each time. Moreover, the TGI in the assay with MALME-3M melanoma, in the assay with MCF7 breast, in the assay on MDA-N, in the assay with MOLT-4 leukemia, in the assay on NCI-H226 lung and with NCI-H23 lung was more than 10 µM in each case. Besides, the TGI in the assay with OVCAR-4 ovarian, with OVCAR-5 ovarian, in the assay on SK-MEL-2 melanoma, in the assay with SK-MEL-28 melanoma, in the assay with SNB-19 CNS and with TK-10 renal was more than 10 µM each time.

Turning to `O=C1NCN(c2ccccc2)C12CCN(CC1COc3ccccc3O1)CC2` (centres undefined), the TGI in the assay on 786-0 renal, in the assay with ACHN renal, in the assay on HCT-15 colon, with HL-60(TB) leukemia, with HT29 colon and in the assay with M14 melanoma was more than 100 µM in each case. The TGI in the assay on MALME-3M melanoma, with MCF7 breast, in the assay on MDA-N, with MOLT-4 leukemia, in the assay on NCI-H226 lung and in the assay on NCI-H23 lung was more than 100 µM in each case. Moreover, the TGI in the assay on OVCAR-4 ovarian is more than 100 µM; in the assay on OVCAR-5 ovarian it was more than 100 µM; with SK-MEL-2 melanoma, more than 100 µM; in the assay on SK-MEL-28 melanoma, more than 100 µM; with SNB-19 CNS, 85.3 µM; with TK-10 renal it was more than 100 µM. In addition, the TGI in the assay on U251 CNS worked out at 79.6 µM.

For the molecule `COC(=O)/C=C/[C@@H]1[C@H](C)N1S(=O)(=O)c1ccc(C)cc1` (some centres undefined), the TGI with 786-0 renal, in the assay with ACHN renal, in the assay with HCT-15 colon, in the assay with HL-60(TB) leukemia, with HT29 colon and in the assay with M14 melanoma was more than 100 µM in each case. Moreover, the TGI in the assay on MALME-3M melanoma, with MCF7 breast, with MDA-N, in the assay on MOLT-4 leukemia, in the assay on NCI-H226 lung and with NCI-H23 lung was more than 100 µM throughout. Besides, the TGI with OVCAR-4 ovarian, in the assay on OVCAR-5 ovarian, in the assay on SK-MEL-2 melanoma, in the assay on SK-MEL-28 melanoma, in the assay on SNB-19 CNS and with TK-10 renal was more than 100 µM throughout. This molecule also returned a TGI in the assay on U251 CNS of more than 100 µM.

On to `CCOc1ccc(NC(=O)C(=O)Nn2c(N)nnc2N)cc1`, for which the TGI with 786-0 renal, in the assay with ACHN renal, with HCT-15 colon, in the assay on HL-60(TB) leukemia, with HT29 colon and in the assay with KM12 colon was more than 100 µM in each case. Besides, the TGI in the assay with M14 melanoma, in the assay on MALME-3M melanoma, in the assay on MCF7 breast, in the assay on MDA-N, with MOLT-4 leukemia and in the assay on NCI-H226 lung was more than 100 µM throughout. Further, the TGI with NCI-H23 lung, in the assay on OVCAR-4 ovarian, in the assay on OVCAR-5 ovarian, in the assay with SK-MEL-2 melanoma, with SK-MEL-28 melanoma and with TK-10 renal was more than 100 µM throughout. The same molecule came in with a TGI with U251 CNS of more than 100 µM.
